The values that follow come from patent EP0403249A1, “Leukotriene antagonists” (SMITHKLINE BEECHAM CORPORATION, priority 1989, dated 1990).

The test system of this experiment is LTD₄. In words: Inhibition of leukotriene (LTD₄) induced contraction of guinea pig tracheal tissues in vitro. The following applies: LTD₄ concentration-response on guinea pig tracheal spiral strips, 30 minutes pretreatment with test compound, EC₃₀ shift; current average where tested more than once. The method, then: The leukotriene antagonist activity of the compounds of this invention is measured by the ability of the compounds to inhibit the leukotriene induced contraction' of guinea pig tracheal tissues in vitro. The following methodology was employed: In vitro: Guinea pig (adult male albino Hartley strain) tracheal spiral strips of approximate dimensions 2 to 3 mm cross-sectional width and 3.5 cm length were bathed in modified Krebs buffer in jacketed 10 ml tissue bath and continuously aerated with 95% 0₂/5% CO₂. The tissues were connected via silk suture to force displacement transducers for recording isometric tension. The tissues were equilibrated for 1 hr., pretreated for 15 minutes with meclofenamic acid (1uM) to remove intrinsic prostaglandin responses, and then pretreated for an additional 30 minutes with either the test compound or vehicle control. A cumulative concentration-response curve for LTD₄ on triplicate tissues was generated by successive increases in the bath concentration of the LTD₄. In order to minimize intertissue variability, the contractions elicited by LTD₄ were standardized as a percentage of the maximum response obtained to a reference agonist, carbachol (10uM).
Calculations: The averages of the triplicate LTD₄ concentration-response curves both in the presence and absence of the test compound were plotted on log graph paper. The concentration of LTD₄ needed to elicit 30% of the contraction elicited by carbachol was measured and defined as the EC₃₀. The -log KB value for the test compound was determined by the following equations: [formula] 2. KB= concentration of test compound/(X-1)
The antagonist activity of representative compounds of this invention is listed in Table I. The -log KB values were calculated from the above protocol. Where compounds were tested more than once, the -log KB values given here represent the current average data.
With `O=C(O)c1ccc(CSC(c2ccccc2CCCCCCCCc2ccccc2)C(O)C(=O)O)c(F)c1` (stereo not shown) [8), 2-Hydroxy-3-(2-fluoro-4-carboxyphenylmethylthio)-3-[2-(8-phenyloctyl)phenyl]propionic acid], the “In Vitro-Log KB” value came to 7.8.

As for `O=C(O)c1ccccc1CS[C@H](c1ccccc1CCCCCCCCc1ccccc1)[C@@H](O)C(=O)O` [2), 2(S)-Hydroxy-3(R)-(2-carboxyphenylmethylthio)-3-[2-(8-phenyloctyl)phenyl]propionic acid], the “In Vitro-Log KB” value amounted to 6.2.

As for `COC(C(=O)O)C(Sc1ccc(C(=O)O)cc1)c1ccccc1CCCCCCCCc1ccccc1` (stereo not shown) [9), 2-Methoxy-3-(4-carboxyphenylthio)-3-[2-(8-phenyloctyl)phenyl]propionic acid], the “In Vitro-Log KB” value is 7.6. With `O=C(O)C(O)C(Sc1ccc(O)cc1)c1ccccc1CCCCCCCCc1ccccc1` (stereo not shown) [10), 2-Hydroxy-3-(4-hydroxyphenylthio)-3-[2-(8-phenyloctyl)phenyl]propionic acid], the “In Vitro-Log KB” value was 5.9.

Take `COc1cc(C(=O)O)ccc1CSC(CC(=O)O)c1ccccc1CCCCCCCCc1ccccc1` (stereo not shown) [12), 3-(4-Carboxy-2-methoxyphenylmethylthio)-3-[2-(8-phenyloctyl)phenyl]propionic acid]: the “In Vitro-Log KB” value was 7.5.

For the compound `O=C(O)c1ccccc1SC(c1ccccc1CCCCCCCCc1ccccc1)C(O)C(=O)O` (stereo not shown) [1), 2-Hydroxy-3-(2-carboxyphenylthio)-3-[2-(8-phenyloctyl)phenyl]propionic acid], the “In Vitro-Log KB” value is 5.5. Next, `COc1cc(C(=O)O)ccc1CSC(c1ccccc1CCCCCCCCc1ccccc1)C(O)C(=O)O` (stereo not shown) [6), 2-Hydroxy-3-(4-carboxy-2-methoxyphenylmethylthio)-3-[2-(8-phenyloctyl)phenyl]propionic acid]: 7.9; `O=C(O)c1ccc(CSC(c2ccccc2CCCCCCCCc2ccccc2)C(O)C(=O)O)cc1` (stereo not shown) [7), 2-Hydroxy-3-(4-carboxyphenylmethylthio)-3-[2-(8-phenyloctyl)phenyl]propionic acid]: 7.1.

Regarding `COc1ccc(C(=O)O)cc1CSC(c1ccccc1CCCCCCCCc1ccccc1)C(O)C(=O)O` (stereo not shown) [13), 2-Hydroxy-3-[(5-carboxy-2-methoxyphenylmethyl)thio]-3-[2-(8-phenyloctyl)phenyl]propionic acid], the “In Vitro-Log KB” value came to 6.5. The figure for `O=C(O)c1cccc(CS[C@H](c2ccccc2CCCCCCCCc2ccccc2)[C@@H](O)C(=O)O)c1` [3), 2(S)-Hydroxy-3(R)-(3-carboxyphenylmethylthio)-3-[2-(8-phenyloctyl)phenyl]propionic acid] is 6.6. As to `COc1cc(C(=O)O)ccc1CSC(c1ccccc1CCCCCCCCc1ccccc1)C(OC)C(=O)O` (stereo not shown) [11), 2-Methoxy-3-(4-carboxy-2-methoxyphenylmethylthio)-3-[2-(8-phenyloctyl)phenyl]propionic acid], the “In Vitro-Log KB” value is on record as 7.4. For `O=C(O)c1ccc(SC(c2ccccc2CCCCCCCCc2ccccc2)C(O)C(=O)O)cc1` (stereo not shown) [5), 2-Hydroxy-3-(4-carboxyphenylthio)-3-[2-(8-phenyloctyl)phenyl]propionic acid], the “In Vitro-Log KB” value was 7.6. `O=C(O)c1cccc(SC(c2ccccc2CCCCCCCCc2ccccc2)C(O)C(=O)O)c1` (stereo not shown) [4), 2-Hydroxy-3-(3-carboxyphenylthio)-3-[2-(8-phenyloctyl)phenyl]propionic acid]: the “In Vitro-Log KB” value came to 7.0.
